Patent publication US20090253669A1, “Substituted Sulfonamide Compounds” (GRUENENTHAL GmbH, priority 2008, published 2009)

Key:
[1] = molecular target: T1, human B1R receptor (hB1R) (Homo sapiens, UniProt P46663); test: FLIPR Ca2+ assay on hB1R-transfected CHO K1 cells, antagonistic action; format: cell-based; details: agonist Lys-Des-Arg9-bradykinin 0.5 nM, % of maximum achievable inhibition; for inhibition at 10 µM: CHO-K1, 10 μM test substance, read-out: hB1R [10 μM] % inhibition
T1 construct: host or cells: CHO K1 cells
T1 sequence (P46663 1-353): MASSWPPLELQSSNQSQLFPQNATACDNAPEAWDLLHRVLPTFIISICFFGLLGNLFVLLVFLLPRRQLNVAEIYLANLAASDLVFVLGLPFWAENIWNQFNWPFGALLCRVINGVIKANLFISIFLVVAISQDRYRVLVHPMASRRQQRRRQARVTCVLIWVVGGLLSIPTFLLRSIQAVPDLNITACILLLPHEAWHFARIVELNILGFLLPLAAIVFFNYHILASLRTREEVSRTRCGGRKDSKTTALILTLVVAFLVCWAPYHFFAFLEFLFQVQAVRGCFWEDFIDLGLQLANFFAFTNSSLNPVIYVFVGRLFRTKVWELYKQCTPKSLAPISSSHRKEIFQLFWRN

[2] = molecular target: T2, B1R receptor of the rat (rB1R) (Rattus norvegicus, UniProt P97583); test: FLIPR Ca2+ assay on rB1R-transfected CHO K1 cells, antagonistic action; format: cell-based; details: agonist Des-Arg9-bradykinin 100 nM, % of maximum achievable inhibition; for inhibition at 10 µM: CHO-K1, 10 μM test substance, read-out: rB1R [10 μM] % inhibition
T2 construct: host or cells: CHO K1 cells
T2 sequence (P97583 1-337): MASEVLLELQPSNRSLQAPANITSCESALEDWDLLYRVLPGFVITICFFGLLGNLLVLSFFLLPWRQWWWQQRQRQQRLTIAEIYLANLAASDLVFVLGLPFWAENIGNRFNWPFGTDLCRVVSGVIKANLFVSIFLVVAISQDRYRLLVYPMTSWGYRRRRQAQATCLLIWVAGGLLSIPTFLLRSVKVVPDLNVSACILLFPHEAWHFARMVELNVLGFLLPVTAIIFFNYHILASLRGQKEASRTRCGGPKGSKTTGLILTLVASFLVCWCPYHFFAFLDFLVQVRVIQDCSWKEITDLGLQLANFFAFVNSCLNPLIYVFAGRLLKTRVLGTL

Row | SMILES | hB1R [10 μM] % inhibition ([1]; 10 μM test substance) | rB1R [10 μM] % inhibition ([2]; 10 μM test substance) | inhibition at 10 µM [1] | inhibition at 10 µM [2]
1 | COc1cc(C)c(S(=O)(=O)N2CCCCC2COCC(=O)N2CCC(c3ccccc3)(N(C)C)CC2)c(C)c1 (centres unmarked) [Compound 75, 1-(4-(dimethylamino)-4-phenylpiperidin-1-yl)-2-((1-(4-methoxy-2,6-dimethylphenylsulfonyl)piperidin-2-yl)methoxy)ethanone] | 103% | 99% | – | –
2 | CN(CCC1CCC(CCc2ccccc2)(N(C)C)CC1)C(=O)CC1CCCCN1S(=O)(=O)c1cccc(C(F)(F)F)c1 (centres unmarked) [Compound 76, N-(2-(4-(dimethylamino)-4-phenethylcyclohexyl)ethyl)-N-methyl-2-(1-(3-(trifluoromethyl)phenylsulfonyl)piperidin-2-yl)acetamide] | – | – | 98% | 99%
3 | COc1cc(C)c(S(=O)(=O)N2CCCCC2COCC(=O)N2CCC(CCc3ccccc3)(N3CCN(C)CC3)CC2)c(C)c1 (centres unmarked) [Compound 77, 2-((1-(4-methoxy-2,6-dimethylphenylsulfonyl)piperidin-2-yl)methoxy)-1-(4-(4-methylpiperazin-1-yl)-4-phenethylpiperidin-1-yl)ethanone] | – | – | 100% | 99%
4 | COc1cc(C)c(S(=O)(=O)N2CCCCC2COCC(=O)N(C)CC2CCC(Cc3ccccc3)(N3CCCC3)CC2)c(C)c1 (centres unmarked) [Compound 78, N-((4-benzyl-4-(pyrrolidin-1-yl)cyclohexyl)methyl)-2-((1-(4-methoxy-2,6-dimethylphenylsulfonyl)piperidin-2-yl)methoxy)-N-methylacetamide] | – | – | 101% | 99%
5 | CN(CCCC1CCC(CCc2ccccc2)(N2CCCC2)CC1)C(=O)CC(NS(=O)(=O)c1ccc2ccccc2c1)c1ccccc1 (centres unmarked) [Compound 79, N-methyl-3-(naphthalene-2-sulfonamido)-N-(3-(4-phenethyl-4-(pyrrolidin-1-yl)cyclohexyl)propyl)-3-phenylpropanamide] | – | – | 102% | 99%
6 | Cc1cc(S(=O)(=O)N2CCCCC2CCC(=O)N2CCC(Cc3ccccc3)(N(C)C)CC2)c(C)cc1Cl (centres unmarked) [Compound 80, 1-(4-benzyl-4-(dimethylamino)piperidin-1-yl)-3-(1-(4-chloro-2,5-dimethylphenylsulfonyl)piperidin-2-yl)propan-1-one] | – | – | 86% | 99%
7 | COc1cc(C)c(S(=O)(=O)N2CCCCC2COCC(=O)N(C)CCC2CCC(c3ccccc3)(N(C)C)CC2)c(C)c1 (centres unmarked) [Compound 81, N-(2-(4-(dimethylamino)-4-phenylcyclohexyl)ethyl)-2-((1-(4-methoxy-2,6-dimethylphenylsulfonyl)piperidin-2-yl)methoxy)-N-methylacetamide] | – | – | 104% | 99%
8 | CN1CCN(C2(c3ccccc3)CCN(C(=O)CC(NS(=O)(=O)c3ccc4ccccc4c3)c3ccccc3)CC2)CC1 (centres unmarked) [Compound 82, N-(3-(4-(4-methylpiperazin-1-yl)-4-phenylpiperidin-1-yl)-3-oxo-1-phenylpropyl)naphthalene-2-sulfonamide] | – | – | 99% | 99%
9 | COc1cc(C)c(S(=O)(=O)N(C)CCOCC(=O)N(C)CCCC2CCC(c3ccccc3)(N3CCCC3)CC2)c(C)c1 (centres unmarked) [Compound 83, 2-(2-(4-methoxy-N,2,6-trimethylphenylsulfonamido)ethoxy)-N-methyl-N-(3-(4-phenyl-4-(pyrrolidin-1-yl)cyclohexyl)propyl)acetamide] | – | – | 103% | 99%
10 | COc1cc(C)c(S(=O)(=O)N2CCCCC2COCC(=O)N(C)CCC2CCC(Cc3ccccc3)(N(C)C)CC2)c(C)c1 (centres unmarked) [Compound 84, N-(2-(4-benzyl-4-(dimethylamino)cyclohexyl)ethyl)-2-((1-(4-methoxy-2,6-dimethylphenylsulfonyl)piperidin-2-yl)methoxy)-N-methylacetamide] | – | – | 104% | 99%
11 | COc1cc(C)c(S(=O)(=O)N(C)CCOCC(=O)N(C)CCCC2CCC(Cc3ccccc3)(N3CCCC3)CC2)c(C)c1 (centres unmarked) [Compound 85, N-(3-(4-benzyl-4-(pyrrolidin-1-yl)cyclohexyl)propyl)-2-(2-(4-methoxy-N,2,6-trimethylphenylsulfonamido)ethoxy)-N-methylacetamide] | – | – | 99% | 99%
12 | CN(CCC1CCC(Cc2ccccc2)(N(C)C)CC1)C(=O)CC(NS(=O)(=O)c1ccc2ccccc2c1)c1ccccc1 (centres unmarked) [Compound 86, N-(2-(4-benzyl-4-(dimethylamino)cyclohexyl)ethyl)-N-methyl-3-(naphthalene-2-sulfonamido)-3-phenylpropanamide] | – | – | 101% | 99%
13 | COc1cc(C)c(S(=O)(=O)N(C)CCOCC(=O)N2CCC(CCc3ccccc3)(N3CCN(C)CC3)CC2)c(C)c1 [Compound 87, 4-methoxy-N,2,6-trimethyl-N-(2-(2-(4-(4-methylpiperazin-1-yl)-4-phenethylpiperidin-1-yl)-2-oxoethoxy)ethyl)benzenesulfonamide] | – | – | 99% | 98%
14 | COc1cc(C)c(S(=O)(=O)N2CCCCC2COCC(=O)N(C)CCCC2CCC(Cc3ccccc3)(N3CCCC3)CC2)c(C)c1 (centres unmarked) [Compound 88, N-(3-(4-benzyl-4-(pyrrolidin-1-yl)cyclohexyl)propyl)-2-((1-(4-methoxy-2,6-dimethylphenylsulfonyl)piperidin-2-yl)methoxy)-N-methylacetamide] | – | – | 101% | 98%
15 | CN(CC1CCC(CCc2ccccc2)(N2CCCC2)CC1)C(=O)CC(NS(=O)(=O)c1ccc2ccccc2c1)c1ccccc1 (centres unmarked) [Compound 89, N-methyl-3-(naphthalene-2-sulfonamido)-N-((4-phenethyl-4-(pyrrolidin-1-yl)cyclohexyl)methyl)-3-phenylpropanamide] | – | – | 92% | 98%
16 | CN(CCC1CCC(c2ccccc2)(N(C)C)CC1)C(=O)CC(NS(=O)(=O)c1ccc2ccccc2c1)c1ccccc1 (centres unmarked) [Compound 90, N-(2-(4-(dimethylamino)-4-phenylcyclohexyl)ethyl)-N-methyl-3-(naphthalene-2-sulfonamido)-3-phenylpropanamide] | – | – | 97% | 97%
17 | COc1cc(C)c(S(=O)(=O)N(C)CCOCC(=O)N(C)CCCC2CCC(CCc3ccccc3)(N3CCCC3)CC2)c(C)c1 (centres unmarked) [Compound 91, 2-(2-(4-methoxy-N,2,6-trimethylphenylsulfonamido)ethoxy)-N-methyl-N-(3-(4-phenethyl-4-(pyrrolidin-1-yl)cyclohexyl)propyl)acetamide] | – | – | 98% | 97%
18 | CN(CC1CCC(c2ccccc2)(N2CCCC2)CC1)C(=O)CC(NS(=O)(=O)c1ccc2ccccc2c1)c1ccccc1 (centres unmarked) [Compound 92, N-methyl-3-(naphthalene-2-sulfonamido)-3-phenyl-N-((4-phenyl-4-(pyrrolidin-1-yl)cyclohexyl)methyl)propanamide] | – | – | 101% | 95%
19 | CN(CCCC1CCC(Cc2ccccc2)(N2CCCC2)CC1)C(=O)CC1CCCCN1S(=O)(=O)c1cccc(C(F)(F)F)c1 (centres unmarked) [Compound 93, N-(3-(4-benzyl-4-(pyrrolidin-1-yl)cyclohexyl)propyl)-N-methyl-2-(1-(3-(trifluoromethyl)phenylsulfonyl)piperidin-2-yl)acetamide] | – | – | 98% | 94%
